Usually TD50 stands for the 50% point of the dose-response relation for the toxic effect studied.

Four compounds from PubChem BioAssay AID1745844 (Carcinogenic Potency Database (CPDB), 2022) can be followed below.

Calls of active or inactive are those of the source. No rule for the calls is given here.

This data set has as its system rodent lifetime carcinogenesis bioassay, tumor incidence TD50. The experiment in a line: chronic cancer bioassays in animals – CPDB, compiled studies (AID 1745844).

Take `C=CC(N)=O`: the TD50 (rat, strain Fischer 344, females, in drinking water, site: brain, lesion: astrocytoma, dosed 104 weeks, study length 104 weeks) amounted to 38.8 mg/kg/day; the TD50 (rat, strain Fischer 344, females, in drinking water, site: brain, lesion: astrocytoma, dosed 107 weeks, study length 107 weeks) was 71.8 mg/kg/day; the TD50 (rat, strain Fischer 344, females, in drinking water, site: brain, lesion: oligodendroglioma, dosed 104 weeks, study length 104 weeks) amounted to 259 mg/kg/day; the TD50 (rat, strain Fischer 344, females, in drinking water, site: central nervous system, lesion: astrocytoma, dosed 104 weeks, study length 104 weeks) is 19.5 mg/kg/day; the TD50 (rat, strain Fischer 344, females, in drinking water, site: central nervous system, lesion: glial tumors (oligodendroglioma and astrocytoma), dosed 104 weeks, study length 104 weeks) is 17.3 mg/kg/day; the TD50 (rat, strain Fischer 344, females, in drinking water, site: central nervous system, lesion: glial tumors (oligodendroglioma and astrocytoma), dosed 107 weeks, study length 107 weeks) was 57.2 mg/kg/day. In addition, the TD50 by setting is: (rat, strain Fischer 344, females, in drinking water, site: clitoral gland, lesion: adenoma, dosed 104 weeks, study length 104 weeks) 19 mg/kg/day; (rat, strain Fischer 344, females, in drinking water, site: mammary gland, lesion: adenocarcinoma, dosed 104 weeks, study length 104 weeks) 17.6 mg/kg/day; (rat, strain Fischer 344, females, in drinking water, site: mammary gland, lesion: adenocarcinoma, dosed 107 weeks, study length 107 weeks) 100 mg/kg/day; (rat, strain Fischer 344, females, in drinking water, site: mammary gland, lesion: benign tumor, dosed 104 weeks, study length 104 weeks) 4.21 mg/kg/day; (rat, strain Fischer 344, females, in drinking water, site: mammary gland, lesion: fibroadenoma, dosed 104 weeks, study length 104 weeks) 8.73 mg/kg/day; (rat, strain Fischer 344, females, in drinking water, site: mammary gland, lesion: fibroadenoma, dosed 107 weeks, study length 107 weeks) 9.33 mg/kg/day. For the same compound, the TD50 by setting is: (rat, strain Fischer 344, females, in drinking water, site: mammary gland, lesion: several types, types named in the paper, dosed 107 weeks, study length 107 weeks) 8.18 mg/kg/day; (rat, strain Fischer 344, females, in drinking water, site: mammary tissue, wider than the gland, lesion: fibroma, dosed 104 weeks, study length 104 weeks) 20.9 mg/kg/day; (rat, strain Fischer 344, females, in drinking water, site: oral cavity, lesion: squamous-cell papilloma, dosed 104 weeks, study length 104 weeks) 16.2 mg/kg/day; (rat, strain Fischer 344, females, in drinking water, site: spinal cord, lesion: astrocytoma, dosed 104 weeks, study length 104 weeks) 40.3 mg/kg/day; (rat, strain Fischer 344, females, in drinking water, site: spinal cord, lesion: astrocytoma, dosed 107 weeks, study length 107 weeks) 210 mg/kg/day; (rat, strain Fischer 344, females, in drinking water, site: thyroid follicle, lesion: several types, types named in the paper, dosed 104 weeks, study length 104 weeks) 19.1 mg/kg/day. The TD50 (rat, strain Fischer 344, females, in drinking water, site: thyroid follicle, lesion: several types, types named in the paper, dosed 107 weeks, study length 107 weeks) is 8.92 mg/kg/day; the TD50 (rat, strain Fischer 344, females, in drinking water, site: thyroid gland, lesion: follicular adenocarcinoma, dosed 104 weeks, study length 104 weeks) turned out to be 39.5 mg/kg/day; the TD50 (rat, strain Fischer 344, females, in drinking water, site: thyroid gland, lesion: follicular adenocarcinoma, dosed 107 weeks, study length 107 weeks) came out at 42.8 mg/kg/day; the TD50 (rat, strain Fischer 344, females, in drinking water, site: thyroid gland, lesion: follicular-cell adenoma, dosed 107 weeks, study length 107 weeks) was 11.7 mg/kg/day; the TD50 (rat, strain Fischer 344, females, in drinking water, site: uterus, lesion: adenocarcinoma, dosed 104 weeks, study length 104 weeks) was 26.5 mg/kg/day; the TD50 (rat, strain Fischer 344, males, in drinking water, site: adrenal gland, lesion: pheochromocytoma, benign, dosed 104 weeks, study length 104 weeks) was 18.1 mg/kg/day. In addition, the TD50 was 82.6 mg/kg/day (rat, strain Fischer 344, males, in drinking water, site: brain, lesion: astrocytoma, dosed 104 weeks, study length 104 weeks); 76.8 mg/kg/day (rat, strain Fischer 344, males, in drinking water, site: brain, lesion: astrocytoma, dosed 107 weeks, study length 107 weeks); 339 mg/kg/day (rat, strain Fischer 344, males, in drinking water, site: brain, lesion: oligodendroglioma, dosed 104 weeks, study length 104 weeks); 23.5 mg/kg/day (rat, strain Fischer 344, males, in drinking water, site: central nervous system, lesion: astrocytoma, dosed 104 weeks, study length 104 weeks); 24.8 mg/kg/day (rat, strain Fischer 344, males, in drinking water, site: central nervous system, lesion: glial tumors (oligodendroglioma and astrocytoma), dosed 104 weeks, study length 104 weeks); 48.9 mg/kg/day (rat, strain Fischer 344, males, in drinking water, site: central nervous system, lesion: glial tumors (oligodendroglioma and astrocytoma), dosed 107 weeks, study length 107 weeks). In addition, the TD50 is, setting by setting: (rat, strain Fischer 344, males, in drinking water, site: spinal cord, lesion: astrocytoma, dosed 104 weeks, study length 104 weeks) 39.7 mg/kg/day; (rat, strain Fischer 344, males, in drinking water, site: spinal cord, lesion: astrocytoma, dosed 107 weeks, study length 107 weeks) 82.5 mg/kg/day; (rat, strain Fischer 344, males, in drinking water, site: spleen, lesion: leukemia, dosed 104 weeks, study length 104 weeks) 45.8 mg/kg/day; (rat, strain Fischer 344, males, in drinking water, site: thyroid follicle, lesion: several types, types named in the paper, dosed 107 weeks, study length 107 weeks) 7.35 mg/kg/day; (rat, strain Fischer 344, males, in drinking water, site: thyroid gland, lesion: follicular adenocarcinoma, dosed 107 weeks, study length 107 weeks) 77.2 mg/kg/day; (rat, strain Fischer 344, males, in drinking water, site: thyroid gland, lesion: follicular-cell adenoma, dosed 104 weeks, study length 104 weeks) 13.5 mg/kg/day. Also, the TD50 is, setting by setting: (rat, strain Fischer 344, males, in drinking water, site: thyroid gland, lesion: follicular-cell adenoma, dosed 107 weeks, study length 107 weeks) 7.49 mg/kg/day; (rat, strain Fischer 344, males, in drinking water, site: tunica vaginalis, lesion: mesothelioma, benign, dosed 107 weeks, study length 107 weeks) 9.45 mg/kg/day; (rat, strain Fischer 344, males, in drinking water, site: tunica vaginalis, lesion: mesothelioma, malignant, dosed 104 weeks, study length 104 weeks) 1.75 mg/kg/day.

Turning to `CCOc1ccc(NC(C)=O)cc1[N+](=O)[O-]`, the carcinogen call is, setting by setting: (mouse, strain B6C3F1, females, in feed, site: any site (literature study), lesion: several types, types named in the paper, dosed 78 weeks, study length 97 weeks) “negative (inactive)”; (rat, strain Fischer 344, females, in feed, site: any site (literature study), lesion: several types, types named in the paper, dosed 78 weeks, study length 106 weeks) “negative (inactive)”; (rat, strain Fischer 344, males, in feed, site: any site (literature study), lesion: several types, types named in the paper, dosed 78 weeks, study length 105 weeks) “negative (inactive)”. For the same compound, the TD50 (mouse, strain B6C3F1, females, in feed, site: lung, lesion: alveolar/bronchiolar adenoma + alveolar/bronchiolar carcinoma, dosed 78 weeks, study length 97 weeks) turned out to be 30800 mg/kg/day; the TD50 (mouse, strain B6C3F1, males, in feed, site: any site (literature study), lesion: several types, types named in the paper, dosed 78 weeks, study length 98 weeks) came to 3490 mg/kg/day; the TD50 (mouse, strain B6C3F1, males, in feed, site: liver, lesion: hepatocellular adenoma + hepatocellular carcinoma + neoplastic nodule, dosed 78 weeks, study length 98 weeks) stood at 2270 mg/kg/day; the TD50 (mouse, strain B6C3F1, males, in feed, site: liver, lesion: hepatocellular adenoma + hepatocellular carcinoma, dosed 78 weeks, study length 98 weeks) is 2270 mg/kg/day; the TD50 (rat, strain Fischer 344, females, in feed, site: liver, lesion: hepatocellular adenoma + hepatocellular carcinoma + neoplastic nodule, dosed 78 weeks, study length 106 weeks) came out at 6240 mg/kg/day.

For `O=c1cc(CO)occ1O`, the TD50 (mouse, strain B6C3F1, females, in feed, site: liver, lesion: hepatocellular adenoma, dosed 84 weeks, study length 88 weeks) stood at 20900 mg/kg/day; the TD50 (mouse, strain B6C3F1, females, in feed, site: thyroid gland, lesion: follicular-cell adenoma, dosed 84 weeks, study length 88 weeks) is 2610 mg/kg/day; the TD50 (mouse, strain B6C3F1, males, in feed, site: liver, lesion: hepatocellular adenoma, dosed 84 weeks, study length 88 weeks) was 19700 mg/kg/day; the TD50 (mouse, strain B6C3F1, males, in feed, site: thyroid gland, lesion: follicular-cell adenoma, dosed 52 weeks, study length 52 weeks) was 323 mg/kg/day; the TD50 (mouse, strain B6C3F1, males, in feed, site: thyroid gland, lesion: follicular-cell adenoma, dosed 84 weeks, study length 88 weeks) was 927 mg/kg/day.

In the case of `CCN(CC)c1ccc(N=Nc2cc[n+]([O-])cc2)cc1`, where the note is “rat, strain Sprague-Dawley, males, in feed, site: liver, lesion: one or several types, types not named, dosed 52 weeks, study length 52 weeks”, the carcinogen call was “positive”.
